Source: ChEMBL document CHEMBL1201862, “PubChem BioAssay data set” (2004)
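Growth conditions: 96-well plates. Treatment: test compound, 48 hours, 5 concentrations. Analysis: linear interpolation between bracketing concentrations; unreached endpoints set to highest concentration. The concentration for 50% growth inhibition is given as GI50.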 Calls of active or inactive are those of the source. Rule as the data show it: active = GI50 up to about 1.1 µM and inactive = higher.

Legend:
Assay in all cases: inhibition of tumour cell growth, NCI panel, 48 h
ACHN = tested on: ACHN
SF-539 = tested on: SF-539
EKVX = tested on: EKVX
HT-29 = tested on: HT-29
OVCAR-5 = tested on: OVCAR-5
Hs-578T = tested on: Hs-578T
CCRF-CEM = tested on: CCRF-CEM
MDA-MB-231 = tested on: MDA-MB-231
K562 = tested on: K562
HOP-62 = tested on: HOP-62
MDA-MB-435 = tested on: MDA-MB-435
M14 = tested on: M14
Malme-3M = tested on: Malme-3M
KM12 = tested on: KM12
OVCAR-8 = tested on: OVCAR-8
T47D = tested on: T47D
HL-60 = tested on: HL-60
NCI/ADR-RES = tested on: NCI/ADR-RES
CAKI-1 = tested on: CAKI-1

SMILES	GI50 (ACHN)	GI50 (SF-539)	GI50 (EKVX)	GI50 (HT-29)	GI50 (OVCAR-5)	GI50 (Hs-578T)	GI50 (CCRF-CEM)	GI50 (MDA-MB-231)	GI50 (K562)	GI50 (HOP-62)	GI50 (MDA-MB-435)	GI50 (M14)	GI50 (Malme-3M)	GI50 (KM12)	GI50 (OVCAR-8)	GI50 (T47D)	GI50 (HL-60)	GI50 (NCI/ADR-RES)	GI50 (CAKI-1)
COc1ccc(C(=O)/C=C2\C(=O)Nc3ccc(Br)cc32)cc1	1.89 µM (inactive)	7.93 µM (inactive)	13.6 µM (inactive)	1.82 µM (inactive)	19.3 µM (inactive)	13.8 µM (inactive)	1.4 µM (inactive)	5.57 µM (inactive)	5.07 µM (inactive)	10.4 µM (inactive)	6.75 µM (inactive)	12 µM (inactive)	8.22 µM (inactive)	3.21 µM (inactive)	2.07 µM (inactive)	11.5 µM (inactive)	1.99 µM (inactive)	1.71 µM (inactive)	8.63 µM (inactive)
Clc1cc2ncn(C3CCCCO3)c2cc1Cl (centres undefined)	–	96.4 µM (inactive)	20 µM (inactive)	35.9 µM (inactive)	> 100 µM (inactive)	23.6 µM (inactive)	56.2 µM (inactive)	74.1 µM (inactive)	46.2 µM (inactive)	69.8 µM (inactive)	75.9 µM (inactive)	71.8 µM (inactive)	> 100 µM (inactive)	14.2 µM (inactive)	56.6 µM (inactive)	44.6 µM (inactive)	30.1 µM (inactive)	36.9 µM (inactive)	39.4 µM (inactive)
COC(=O)C1=C(O)C(C(=O)OC)[C@]2(O)[C@H](C(=O)OC)[C@H]1C[C@@H](c1ccc(C(F)(F)F)cc1)[C@H]2C(=O)OC (some centres undefined)	3.46 µM (inactive)	1.59 µM (inactive)	10.6 µM (inactive)	4.68 µM (inactive)	3.63 µM (inactive)	4.43 µM (inactive)	–	4.22 µM (inactive)	2.62 µM (inactive)	6.87 µM (inactive)	3.36 µM (inactive)	3.81 µM (inactive)	3.78 µM (inactive)	5.37 µM (inactive)	2.85 µM (inactive)	3.44 µM (inactive)	5.48 µM (inactive)	2.33 µM (inactive)	3.34 µM (inactive)
CC(C#N)NCc1ccc(C(C)NC(C)C#N)cc1 (centres undefined)	> 100 µM (inactive)	> 100 µM (inactive)	> 100 µM (inactive)	> 100 µM (inactive)	> 100 µM (inactive)	> 100 µM (inactive)	> 100 µM (inactive)	> 100 µM (inactive)	> 100 µM (inactive)	–	> 100 µM (inactive)	> 100 µM (inactive)	96.6 µM (inactive)	> 100 µM (inactive)	> 100 µM (inactive)	> 100 µM (inactive)	> 100 µM (inactive)	> 100 µM (inactive)	> 100 µM (inactive)
C/C(=C/CC[C@]1(CO)CC[C@]2(C)[C@H](CC[C@@H]3[C@@]4(C)CC[C@H](OC5OC(CO)C(O)C(O)C5OC5OC(CO)C(O)C(O)C5O)C(C)(C)[C@@H]4CC[C@]32C)[C@H]1O)CO (some centres undefined)	> 100 µM (inactive)	> 100 µM (inactive)	> 100 µM (inactive)	> 100 µM (inactive)	> 100 µM (inactive)	> 100 µM (inactive)	> 100 µM (inactive)	> 100 µM (inactive)	> 100 µM (inactive)	> 100 µM (inactive)	> 100 µM (inactive)	> 100 µM (inactive)	> 100 µM (inactive)	> 100 µM (inactive)	> 100 µM (inactive)	> 100 µM (inactive)	> 100 µM (inactive)	> 100 µM (inactive)	> 100 µM (inactive)
CCN(CC)c1ccc2nc3ccc(/N=N/c4c(O)ccc5ccccc45)cc3[n+](-c3ccccc3)c2c1	> 100 µM (inactive)	–	> 100 µM (inactive)	> 100 µM (inactive)	> 100 µM (inactive)	> 100 µM (inactive)	> 100 µM (inactive)	> 100 µM (inactive)	> 100 µM (inactive)	> 100 µM (inactive)	> 100 µM (inactive)	> 100 µM (inactive)	> 100 µM (inactive)	> 100 µM (inactive)	> 100 µM (inactive)	> 100 µM (inactive)	23.9 µM (inactive)	> 100 µM (inactive)	> 100 µM (inactive)
Cc1ccc(SCC(CSCCO)OCn2cnc3c2N=C(N)NC32OCCO2)cc1 (centres undefined)	> 100 µM (inactive)	> 100 µM (inactive)	83 µM (inactive)	> 100 µM (inactive)	> 100 µM (inactive)	> 100 µM (inactive)	> 100 µM (inactive)	> 100 µM (inactive)	> 100 µM (inactive)	> 100 µM (inactive)	> 100 µM (inactive)	> 100 µM (inactive)	> 100 µM (inactive)	–	> 100 µM (inactive)	> 100 µM (inactive)	> 100 µM (inactive)	> 100 µM (inactive)	> 100 µM (inactive)
C=C1N(S(=O)(=O)c2ccc(C)cc2)C(=O)OCC12CCCC2	> 100 µM (inactive)	> 100 µM (inactive)	55 µM (inactive)	54.7 µM (inactive)	> 100 µM (inactive)	32.5 µM (inactive)	65.5 µM (inactive)	> 100 µM (inactive)	94.2 µM (inactive)	–	> 100 µM (inactive)	> 100 µM (inactive)	> 100 µM (inactive)	> 100 µM (inactive)	> 100 µM (inactive)	27.2 µM (inactive)	40.3 µM (inactive)	81.7 µM (inactive)	94.4 µM (inactive)
CC(=O)Oc1ccc2c(c1)c1c(=O)oc(C)nc1n2Cc1ccccc1	28.7 µM (inactive)	27.5 µM (inactive)	> 53.5 µM (inactive)	> 89.3 µM (inactive)	> 84.5 µM (inactive)	> 73.6 µM (inactive)	> 64.3 µM (inactive)	33.7 µM (inactive)	50.8 µM (inactive)	32.7 µM (inactive)	28.3 µM (inactive)	40.3 µM (inactive)	73.6 µM (inactive)	23.6 µM (inactive)	37.2 µM (inactive)	33.5 µM (inactive)	57.7 µM (inactive)	31.3 µM (inactive)	4.99 µM (inactive)
Cc1ccc2c(ccc3c[n+]4ccccc4c(C)c32)c1.[O-][Cl+3]([O-])([O-])[O-]	6.7 µM (inactive)	2.3 µM (inactive)	62.4 µM (inactive)	6.15 µM (inactive)	10.5 µM (inactive)	3.05 µM (inactive)	6.64 µM (inactive)	6.61 µM (inactive)	4.16 µM (inactive)	2.44 µM (inactive)	4.73 µM (inactive)	5.46 µM (inactive)	1.32 µM (inactive)	0.39 µM (active)	2.29 µM (inactive)	2.47 µM (inactive)	11.7 µM (inactive)	> 100 µM (inactive)	0.297 µM (active)
COc1cc2c(cc1OC)C1c3ccccc3CCCN1CC2 (centres undefined)	> 100 µM (inactive)	> 100 µM (inactive)	> 100 µM (inactive)	51.2 µM (inactive)	> 100 µM (inactive)	> 100 µM (inactive)	> 100 µM (inactive)	> 100 µM (inactive)	> 100 µM (inactive)	> 100 µM (inactive)	> 100 µM (inactive)	> 100 µM (inactive)	> 100 µM (inactive)	> 100 µM (inactive)	> 100 µM (inactive)	> 100 µM (inactive)	41.3 µM (inactive)	> 100 µM (inactive)	> 100 µM (inactive)
C[C@@H](C1CC[C@H]2[C@@H]3[C@@H]4O[C@@H]4[C@@]4(O)CC=CC(=O)[C@]4(C)[C@H]3C[C@H](O)[C@]12C)[C@H]1C[C@]2(C)O[C@]2(C)C(=O)O1 (some centres undefined)	> 100 µM (inactive)	> 100 µM (inactive)	> 100 µM (inactive)	> 100 µM (inactive)	> 100 µM (inactive)	> 100 µM (inactive)	56.6 µM (inactive)	> 100 µM (inactive)	> 100 µM (inactive)	–	> 100 µM (inactive)	> 100 µM (inactive)	> 100 µM (inactive)	> 100 µM (inactive)	> 100 µM (inactive)	> 100 µM (inactive)	> 100 µM (inactive)	> 100 µM (inactive)	> 100 µM (inactive)
S=c1c2cc(I)ccc2nc(S)n1Cc1ccccc1	3.06 µM (inactive)	10.3 µM (inactive)	3.71 µM (inactive)	18.4 µM (inactive)	17 µM (inactive)	7.16 µM (inactive)	1.84 µM (inactive)	6.37 µM (inactive)	3.54 µM (inactive)	2.87 µM (inactive)	4.1 µM (inactive)	3.9 µM (inactive)	4.01 µM (inactive)	3.42 µM (inactive)	5.57 µM (inactive)	1.5 µM (inactive)	2.33 µM (inactive)	3.37 µM (inactive)	3.78 µM (inactive)
c1ccc2c(c1)CCN1CCc3c([nH]c4ccccc34)C21 (centres undefined)	31.3 µM (inactive)	49 µM (inactive)	28.2 µM (inactive)	26.9 µM (inactive)	22.4 µM (inactive)	53.2 µM (inactive)	31.5 µM (inactive)	35.3 µM (inactive)	20.5 µM (inactive)	36 µM (inactive)	26.7 µM (inactive)	16.7 µM (inactive)	18.1 µM (inactive)	26.5 µM (inactive)	31.8 µM (inactive)	32.5 µM (inactive)	13.7 µM (inactive)	22.1 µM (inactive)	30.3 µM (inactive)
